Experimental data from patent US12250947B2, “Substituted azaspiro-cycles as herbicides” (SYNGENTA CROP PROTECTION AG, priority 2019, dated 2025).

What was measured:
Assay type in all cases: in vivo
[1] = test system: Alopecurus myosuroides (ALOMY); assay: Herbicidal glasshouse test, post-emergence, ALOMY; conditions: 250 g/Ha, evaluated after 13 days
Method: (§1) Seeds of a variety of test species are sown in standard soil in pots (Lolium perenne (LOLPE), Setaria faberi (SETFA), Alopecurus myosuroides (ALOMY), Echinochloa crus-galli (ECHCG), Avena fatua (AVEFA)). […] Compounds are applied at 250 g/h. The test plants are then grown in a glasshouse under controlled conditions in a glasshouse (at 24/16° C., day/night; 14 hours light; 65% humidity) and watered twice daily. After 13 days for pre and post-emergence, the test is evaluated for the percentage damage caused to the plant. […] NT=not tested.

[2] = test system: Setaria faberi (SETFA); assay: Herbicidal glasshouse test, post-emergence, SETFA; conditions: 250 g/Ha, evaluated after 13 days
Method: as §1

[3] = test system: Lolium perenne (LOLPE); assay: Herbicidal glasshouse test, pre-emergence, LOLPE; conditions: 250 g/Ha, evaluated after 13 days
Method: as §1

[4] = test system: Avena fatua (AVEFA); assay: Herbicidal glasshouse test, post-emergence, AVEFA; conditions: 250 g/Ha, evaluated after 13 days
Method: as §1

[5] = test system: Alopecurus myosuroides (ALOMY); assay: Herbicidal glasshouse test, pre-emergence, ALOMY; conditions: 250 g/Ha, evaluated after 13 days
Method: as §1

[6] = test system: Echinochloa crus-galli (ECHCG); assay: Herbicidal glasshouse test, post-emergence, ECHCG; conditions: 250 g/Ha, evaluated after 13 days
Method: as §1

[7] = test system: Setaria faberi (SETFA); assay: Herbicidal glasshouse test, pre-emergence, SETFA; conditions: 250 g/Ha, evaluated after 13 days
Method: as §1

[8] = test system: Echinochloa crus-galli (ECHCG); assay: Herbicidal glasshouse test, pre-emergence, ECHCG; conditions: 250 g/Ha, evaluated after 13 days
Method: as §1

[9] = test system: Lolium perenne (LOLPE); assay: Herbicidal glasshouse test, post-emergence, LOLPE; conditions: 250 g/Ha, evaluated after 13 days
Method: as §1

[10] = test system: Avena fatua (AVEFA); assay: Herbicidal glasshouse test, pre-emergence, AVEFA; conditions: 250 g/Ha, evaluated after 13 days
Method: as §1

[11] = test system: wheat crop plants; assay: Crop phytotoxicity comparison, post-emergence, wheat
Method: (§2) Seeds of a variety of test species are sown in standard soil in pots (Lolium perenne (LOLPE), Setaria faberi (SETFA), Alopecurus myosuroides (ALOMY), Echinochloa crus-galli (ECHCG), Avena fatua (AVEFA)). After cultivation for one day (pre-emergence) or after 8 days cultivation (post-emergence) under controlled conditions in a glasshouse (at 24/16° C., day/night; 14 hours light; 65% humidity), the plants are sprayed with an aqueous spray solution derived from the formulation of the technical active ingredient in acetone/water (50:50) solution containing 0.5% Tween 20 (polyoxyethelyene sorbitan monolaurate, CAS RN 9005-64-5). Compounds are applied at 250 g/h. The test plants are then grown in a glasshouse under controlled conditions in a glasshouse (at 24/16° C., day/night; 14 hours light; 65% humidity) and watered twice daily. After 13 days for pre and post-emergence, the test is evaluated for the percentage damage caused to the plant. The biological activities are shown in the following table on a five-point scale (5=80-100%; 4=60-79%; 3=40-59%; 2=20-39%; 1=0-19%). NT=not tested.
(§3) Using procedures outlines above, wheat and barley crop plants are treated, post-emergence with compounds A1 or A4 of the present invention or comparator compound C1 (Compound A-38 from WO2014/096289) at the application rates indicated. The compounds were also applied in conjunction with the safener compound cloquintocet-mexyl (CQC) at 50 g/ha.

[12] = test system: barley crop plants; assay: Crop phytotoxicity comparison, post-emergence, barley
Method: as §2, §3

Row | Compound | percentage damage caused to the plant, five-point scale, ALOMY [1] | percentage damage caused to the plant, five-point scale, SETFA [2] | percentage damage caused to the plant, five-point scale, LOLPE [3] | percentage damage caused to the plant, five-point scale, AVEFA [4] | percentage damage caused to the plant, five-point scale, ALOMY [5] | percentage damage caused to the plant, five-point scale, ECHCG [6] | percentage damage caused to the plant, five-point scale, SETFA [7] | percentage damage caused to the plant, five-point scale, ECHCG [8] | percentage damage caused to the plant, five-point scale, LOLPE [9] | percentage damage caused to the plant, five-point scale, AVEFA [10] | damage to the wheat and barley crops compared to prior art compound C1 ([11]; wheat and barley crops, summary of Table B3) | % phytotoxicity observed, Wheat ([11]; rate 30 g/ha) [%] | % phytotoxicity observed, Wheat ([11]; rate 60 g/ha) [%] | % phytotoxicity observed, Wheat ([11]; rate 60 g/ha + safener cloquintocet-mexyl (CQC) at 50 g/ha) [%] | % phytotoxicity observed, Barley ([12]; rate 30 g/ha) [%] | % phytotoxicity observed, Barley ([12]; rate 60 g/ha) [%]
1 | CC#Cc1cc(C)c(C2C(=O)CC3(CCN(C(=O)C(=O)OCC)CC3)CC2=O)c(C)c1 [Compound A2] | 4 (4=60-79%) | 5 (5=80-100%) | 3 (3=40-59%) | 4 (4=60-79%) | 0 | 5 (5=80-100%) | 5 (5=80-100%) | 4 (4=60-79%) | 5 (5=80-100%) | 1 (1=0-19%) |  |  |  |  |  | 
2 | CC#Cc1cc(C)c(C2C(=O)CC3(CCN(C(=O)C(=O)C(F)(F)F)CC3)CC2=O)c(C)c1 [Compound A3] | 5 (5=80-100%) | 5 (5=80-100%) | 5 (5=80-100%) | 5 (5=80-100%) | 5 (5=80-100%) | 5 (5=80-100%) | 5 (5=80-100%) | 5 (5=80-100%) | 5 (5=80-100%) | 4 (4=60-79%) | significantly less damaging |  |  |  |  | 
3 | CC#Cc1cc(C)c(C2C(=O)CC3(CCN(C(=O)C(=O)NC)CC3)CC2=O)c(C)c1 [Compound A4, 2-[9-(2,6-dimethyl-4-prop-1-ynyl-phenyl)-8,10-dioxo-3-azaspiro[5.5]undecan-3-yl]-N-methyl-2-oxo-acetamide] | 5 (5=80-100%) | 5 (5=80-100%) | 5 (5=80-100%) | 5 (5=80-100%) | 4 (4=60-79%) | 5 (5=80-100%) | 5 (5=80-100%) | 5 (5=80-100%) | 5 (5=80-100%) | 5 (5=80-100%) |  |  |  |  |  | 
4 | CC#Cc1cc(C)c(C2C(=O)CC3(CCN(C(=O)C(=O)N(C)C)CC3)CC2=O)c(C)c1 [Compound A5] | 5 (5=80-100%) | 5 (5=80-100%) | 5 (5=80-100%) | 5 (5=80-100%) | 5 (5=80-100%) | 5 (5=80-100%) | 5 (5=80-100%) | 5 (5=80-100%) | 5 (5=80-100%) | 4 (4=60-79%) |  |  |  |  |  | 
5 | CC#Cc1cc(C)c(C2C(=O)CC3(CCN(C(=O)C(=O)Nc4ccccn4)CC3)CC2=O)c(C)c1 [Compound A6] | 5 (5=80-100%) | 5 (5=80-100%) | 4 (4=60-79%) | 5 (5=80-100%) | 2 (2=20-39%) | 5 (5=80-100%) | 5 (5=80-100%) | 5 (5=80-100%) | 5 (5=80-100%) | 4 (4=60-79%) |  |  |  |  |  | 
6 | CC#Cc1cc(C)c(C2C(=O)CC3(CCN(C(=O)C(=O)C(C)(C)C)CC3)CC2=O)c(C)c1 [Compound A7] | 5 (5=80-100%) | 5 (5=80-100%) | 5 (5=80-100%) | 5 (5=80-100%) | 3 (3=40-59%) | 5 (5=80-100%) | 5 (5=80-100%) | 5 (5=80-100%) | 5 (5=80-100%) | 3 (3=40-59%) |  |  |  |  |  | 
7 | CC#Cc1cc(C)c(C2C(=O)CC3(CCN(C(=O)C(N)=O)CC3)CC2=O)c(C)c1 [Compound A8] | 5 (5=80-100%) | 5 (5=80-100%) | 5 (5=80-100%) | 5 (5=80-100%) | 5 (5=80-100%) | 5 (5=80-100%) | 5 (5=80-100%) | 5 (5=80-100%) | 5 (5=80-100%) | 5 (5=80-100%) |  |  |  |  |  | 
8 | CC#Cc1cc(C)c(C2C(=O)CC3(CCN(C(=O)C(=O)NC(C)(C)C)CC3)CC2=O)c(C)c1 [Compound A9, N-tert-butyl-2-[9-(2,6-dimethyl-4-prop-1-ynyl-phenyl)-8,10-dioxo-3-azaspiro[5.5]undecan-3-yl]-2-oxo-acetamide] | 4 (4=60-79%) | 5 (5=80-100%) | 5 (5=80-100%) | 5 (5=80-100%) | 5 (5=80-100%) | 5 (5=80-100%) | 5 (5=80-100%) | 5 (5=80-100%) | 5 (5=80-100%) | 5 (5=80-100%) |  |  |  |  |  | 
9 | CC#Cc1cc(C)c(C2C(=O)CC3(CCOCC3)CC2=O)c(C)c1 [Compound C1, reference compound] |  |  |  |  |  |  |  |  |  |  |  | 40 | 70 | 60 | 80 | 90
10 | CC#Cc1cc(C)c(C2=C(OC(=O)OC)CC3(CCN(C(=O)C(C)=O)CC3)CC2=O)c(C)c1 [Compound P1, [9-(2,6-dimethyl-4-prop-1-ynyl-phenyl)-10-oxo-3-(2-oxopropanoyl)-3-azaspiro[5.5]undec-8-en-8-yl] methyl carbonate] | 5 (5=80-100%) | 5 (5=80-100%) | 5 (5=80-100%) | 5 (5=80-100%) | 5 (5=80-100%) | 5 (5=80-100%) | 5 (5=80-100%) | 5 (5=80-100%) | 5 (5=80-100%) | 5 (5=80-100%) |  |  |  |  |  | 
